Experimental data as given in ChEMBL document CHEMBL4813985, “Lead optimization generates selenium-containing miconazole CYP51 inhibitors with improved pharmacological profile for the treatment of fungal infections” (Eur J Med Chem, 2021).
Values after ≈ are worked out from the molar mass of the structure shown.

What was measured:
Type in all cases: functional
[1] = tested on: [Candida] zeylanoides; test: Antifungal activity against Candida zeylanoides CMGCC2.3739 measured after 24 hrs by broth microdilution assay; conditions: Dujonia zeylanoides
[2] = tested on: Candida parapsilosis; test: Antifungal activity against Candida parapsilosis ATCC 22019 measured after 24 hrs by broth microdilution assay; conditions: Lodderomyces parapsilosis
[3] = tested on: Candida albicans; test: Potency index, ratio of fluconazole MIC to test compound MIC for Candida albicans CPCC400616 measured after 24 hrs by broth microdilution assay
[4] = tested on: Cryptococcus neoformans; test: Antifungal activity against Cryptococcus neoformans CMGCC2.3161 measured after 72 hrs by broth microdilution assay
[5] = tested on: Candida albicans; test: Antifungal activity against fluconazole-resistant Candida albicans 17# assessed as inhibition of microbial growth after 24 hrs by broth microdilution method
[6] = tested on: Candida albicans; test: Antifungal activity against fluconazole-resistant Candida albicans 904 assessed as inhibition of microbial growth after 24 hrs by broth microdilution method
[7] = tested on: Nakaseomyces glabratus; test: Antifungal activity against Candida glabrata measured after 24 hrs by broth microdilution assay
[8] = tested on: Pichia kudriavzevii; test: Antifungal activity against Candida krusei AS2.1045 measured after 24 hrs by broth microdilution assay
[9] = tested on: Candida albicans; test: Antifungal activity against fluconazole-resistant Candida albicans 632 assessed as inhibition of microbial growth after 24 hrs by broth microdilution method
[10] = tested on: Aspergillus fumigatus; test: Antifungal activity against Aspergillus fumigatus CMGCC3.7795 measured after 72 hrs by broth microdilution assay
[11] = tested on: Candida albicans; test: Antifungal activity against Candida albicans ATCC SC5314 measured after 24 hrs by broth microdilution assay
[12] = tested on: Candida albicans; test: Antifungal activity against fluconazole-resistant Candida albicans CaR assessed as inhibition of microbial growth after 24 hrs by broth microdilution method
[13] = tested on: Candida albicans; test: Antifungal activity against Candida albicans CPCC400616 measured after 24 hrs by broth microdilution assay
[14] = tested on: Candida albicans; test: Antifungal activity against fluconazole-resistant Candida albicans 901 assessed as inhibition of microbial growth after 24 hrs by broth microdilution method

Fc1ccc([Se]C(Cn2ccnc2)c2ccc(Cl)cc2Cl)cc1 (stereo not drawn)
MIC [1]: 0.25 µg/mL (≈ 0.604 µM)
MIC [2]: 0.25 µg/mL (≈ 0.604 µM)
Ratio [3]: 8
MIC [4]: 0.03 µg/mL (≈ 0.0724 µM)
MIC [5]: 2 µg/mL
MIC [6]: 1 µg/mL
MIC [7]: 0.5 µg/mL (≈ 1.21 µM)
MIC [8]: 0.02 µg/mL (≈ 0.0483 µM)
MIC [9]: 1 µg/mL
MIC [10]: 8 µg/mL (≈ 19.3 µM)
MIC [11]: 0.03 µg/mL (≈ 0.0724 µM)
MIC [12]: 8 µg/mL
MIC [13]: 0.25 µg/mL (≈ 0.604 µM)
MIC [14]: 1 µg/mL

Cc1ccccc1[Se]C(Cn1ccnc1)c1ccc(F)cc1F (stereo not drawn)
MIC [1]: 0.5 µg/mL (≈ 1.33 µM)
MIC [2]: 0.13 µg/mL (≈ 0.345 µM)
Ratio [3]: 8
MIC [4]: 0.5 µg/mL (≈ 1.33 µM)
MIC [5]: 4 µg/mL
MIC [6]: 1 µg/mL
MIC [7]: 1 µg/mL (≈ 2.65 µM)
MIC [8]: 0.02 µg/mL (≈ 0.053 µM)
MIC [9]: 4 µg/mL
MIC [10]: 8 µg/mL (≈ 21.2 µM)
MIC [11]: 0.02 µg/mL (≈ 0.053 µM)
MIC [12]: 8 µg/mL
MIC [13]: 0.13 µg/mL (≈ 0.345 µM)
MIC [14]: 2 µg/mL

Fc1ccc(C(Cn2ccnc2)[Se]c2ccccc2)c(F)c1 (stereo not drawn)
MIC [1]: 0.25 µg/mL (≈ 0.688 µM)
MIC [2]: 0.06 µg/mL (≈ 0.165 µM)
Ratio [3]: 8
MIC [4]: 0.5 µg/mL (≈ 1.38 µM)
MIC [5]: 4 µg/mL
MIC [6]: 1 µg/mL
MIC [7]: 1 µg/mL (≈ 2.75 µM)
MIC [8]: 0.25 µg/mL (≈ 0.688 µM)
MIC [9]: 2 µg/mL
MIC [10]: 2 µg/mL (≈ 5.51 µM)
MIC [11]: 0.02 µg/mL (≈ 0.0551 µM)
MIC [12]: 1 µg/mL
MIC [13]: 0.5 µg/mL (≈ 1.38 µM)
MIC [14]: 2 µg/mL

CCc1ccc([Se]C(Cn2ccnc2)c2ccc(Cl)cc2Cl)cc1 (stereo not drawn)
MIC [1]: 0.5 µg/mL (≈ 1.18 µM)
MIC [2]: 1 µg/mL (≈ 2.36 µM)
Ratio [3]: 8
MIC [4]: 0.5 µg/mL (≈ 1.18 µM)
MIC [5]: 8 µg/mL
MIC [6]: 15 µg/mL
MIC [7]: 0.13 µg/mL (≈ 0.306 µM)
MIC [8]: 0.06 µg/mL (≈ 0.141 µM)
MIC [9]: 4 µg/mL
MIC [10]: 4 µg/mL (≈ 9.43 µM)
MIC [11]: 0.03 µg/mL (≈ 0.0707 µM)
MIC [12]: 8 µg/mL
MIC [13]: 0.5 µg/mL (≈ 1.18 µM)
MIC [14]: 4 µg/mL

Fc1cccc([Se]C(Cn2ccnc2)c2ccc(F)cc2F)c1 (stereo not drawn)
MIC [1]: 0.5 µg/mL (≈ 1.31 µM)
MIC [2]: 0.25 µg/mL (≈ 0.656 µM)
Ratio [3]: 8
MIC [4]: 0.5 µg/mL (≈ 1.31 µM)
MIC [5]: 4 µg/mL
MIC [6]: 2 µg/mL
MIC [7]: 1 µg/mL (≈ 2.62 µM)
MIC [8]: 0.13 µg/mL (≈ 0.341 µM)
MIC [9]: 1 µg/mL
MIC [10]: 8 µg/mL (≈ 21 µM)
MIC [11]: 0.03 µg/mL (≈ 0.0787 µM)
MIC [12]: 4 µg/mL
MIC [13]: 0.5 µg/mL (≈ 1.31 µM)
MIC [14]: 2 µg/mL

COc1cccc([Se]C(Cn2ccnc2)c2ccc(Cl)cc2Cl)c1 (stereo not drawn)
MIC [1]: 0.5 µg/mL (≈ 1.17 µM)
MIC [2]: 0.5 µg/mL (≈ 1.17 µM)
Ratio [3]: 8
MIC [4]: 0.25 µg/mL (≈ 0.587 µM)
MIC [5]: 2 µg/mL
MIC [6]: 4 µg/mL
MIC [7]: 0.5 µg/mL (≈ 1.17 µM)
MIC [8]: 0.06 µg/mL (≈ 0.141 µM)
MIC [9]: 16 µg/mL
MIC [10]: 8 µg/mL (≈ 18.8 µM)
MIC [11]: 0.03 µg/mL (≈ 0.0704 µM)
MIC [12]: 8 µg/mL
MIC [13]: 0.25 µg/mL (≈ 0.587 µM)
MIC [14]: 16 µg/mL

Cc1cc(C)cc([Se]C(Cn2ccnc2)c2ccc(F)cc2F)c1 (stereo not drawn)
MIC [1]: 0.5 µg/mL (≈ 1.28 µM)
MIC [2]: 0.13 µg/mL (≈ 0.332 µM)
Ratio [3]: 8
MIC [4]: 0.5 µg/mL (≈ 1.28 µM)
MIC [5]: 4 µg/mL
MIC [6]: 8 µg/mL
MIC [7]: 0.5 µg/mL (≈ 1.28 µM)
MIC [8]: 0.13 µg/mL (≈ 0.332 µM)
MIC [9]: 8 µg/mL
MIC [10]: 8 µg/mL (≈ 20.4 µM)
MIC [11]: 0.03 µg/mL (≈ 0.0767 µM)
MIC [12]: 2 µg/mL
MIC [13]: 0.13 µg/mL (≈ 0.332 µM)
MIC [14]: 4 µg/mL

Cc1cccc([Se]C(Cn2ccnc2)c2ccc(F)cc2F)c1 (stereo not drawn)
MIC [1]: 0.5 µg/mL (≈ 1.33 µM)
MIC [2]: 0.25 µg/mL (≈ 0.663 µM)
Ratio [3]: 8
MIC [4]: 0.25 µg/mL (≈ 0.663 µM)
MIC [5]: 8 µg/mL
MIC [6]: 1 µg/mL
MIC [7]: 1 µg/mL (≈ 2.65 µM)
MIC [8]: 0.06 µg/mL (≈ 0.159 µM)
MIC [9]: 0.5 µg/mL
MIC [10]: 8 µg/mL (≈ 21.2 µM)
MIC [11]: 0.03 µg/mL (≈ 0.0795 µM)
MIC [12]: 4 µg/mL
MIC [13]: 0.25 µg/mL (≈ 0.663 µM)
MIC [14]: 4 µg/mL

COc1ccccc1[Se]C(Cn1ccnc1)c1ccc(Cl)cc1Cl (stereo not drawn)
MIC [1]: 0.25 µg/mL (≈ 0.587 µM)
MIC [2]: 0.13 µg/mL (≈ 0.305 µM)
Ratio [3]: 8
MIC [4]: 0.5 µg/mL (≈ 1.17 µM)
MIC [5]: 2 µg/mL
MIC [6]: 8 µg/mL
MIC [7]: 0.5 µg/mL (≈ 1.17 µM)
MIC [8]: 0.13 µg/mL (≈ 0.305 µM)
MIC [9]: 2 µg/mL
MIC [10]: 8 µg/mL (≈ 18.8 µM)
MIC [11]: 0.03 µg/mL (≈ 0.0704 µM)
MIC [12]: 2 µg/mL
MIC [13]: 0.06 µg/mL (≈ 0.141 µM)
MIC [14]: 1 µg/mL

Cc1ccc(C)c([Se]C(Cn2ccnc2)c2ccc(F)cc2F)c1 (stereo not drawn)
MIC [1]: 0.5 µg/mL (≈ 1.28 µM)
MIC [2]: 0.13 µg/mL (≈ 0.332 µM)
Ratio [3]: 8
MIC [4]: 0.25 µg/mL (≈ 0.639 µM)
MIC [5]: 4 µg/mL
MIC [6]: 8 µg/mL
MIC [7]: 0.5 µg/mL (≈ 1.28 µM)
MIC [8]: 0.13 µg/mL (≈ 0.332 µM)
MIC [9]: 2 µg/mL
MIC [10]: 8 µg/mL (≈ 20.4 µM)
MIC [11]: 0.06 µg/mL (≈ 0.153 µM)
MIC [12]: 8 µg/mL
MIC [13]: 0.25 µg/mL (≈ 0.639 µM)
MIC [14]: 4 µg/mL

Cc1ccc([Se]C(Cn2ccnc2)c2ccc(F)cc2F)cc1 (stereo not drawn)
MIC [1]: 0.5 µg/mL (≈ 1.33 µM)
MIC [2]: 0.25 µg/mL (≈ 0.663 µM)
Ratio [3]: 8
MIC [4]: 0.13 µg/mL (≈ 0.345 µM)
MIC [5]: 16 µg/mL
MIC [6]: 4 µg/mL
MIC [7]: 0.5 µg/mL (≈ 1.33 µM)
MIC [8]: 0.13 µg/mL (≈ 0.345 µM)
MIC [9]: 1 µg/mL
MIC [10]: 8 µg/mL (≈ 21.2 µM)
MIC [11]: 0.03 µg/mL (≈ 0.0795 µM)
MIC [12]: 2 µg/mL
MIC [13]: 0.5 µg/mL (≈ 1.33 µM)
MIC [14]: 8 µg/mL

Clc1ccc(C(Cn2ccnc2)[Se]c2ccccc2)c(Cl)c1 (stereo not drawn)
MIC [1]: 0.25 µg/mL (≈ 0.631 µM)
MIC [2]: 0.25 µg/mL (≈ 0.631 µM)
Ratio [3]: 8
MIC [4]: 0.13 µg/mL (≈ 0.328 µM)
MIC [5]: 1 µg/mL
MIC [6]: 2 µg/mL
MIC [7]: 1 µg/mL (≈ 2.52 µM)
MIC [8]: 0.13 µg/mL (≈ 0.328 µM)
MIC [9]: 1 µg/mL
MIC [10]: 8 µg/mL (≈ 20.2 µM)
MIC [11]: 0.13 µg/mL (≈ 0.328 µM)
MIC [12]: 1 µg/mL
MIC [13]: 0.25 µg/mL (≈ 0.631 µM)
MIC [14]: 2 µg/mL
